Here are results for two compounds from US20040019068A1, “Novel remedies or preventives for angiostenosis” (priority 2000, published 2004).

SMILES strings stand for the structures.

The test system of series [1] is implanted blood vessel (jugular vein implanted into the carotid artery). The series is described as follows: Restenosis test in dog bypass graft model. Conditions: implanted blood vessel 28 days after bypass grafting, 5 mg/kg orally once a day for 33 days. In kind it is in vivo, dog (beagle). The method, then:
(§1) 10 Male adult beagles (8 to 10 kg) purchased from NIPPON SLC were anesthetized with an intravenous administration of pentobarbital sodium at 35 mg/kg per animal. The cervical position was incised, and a right jugular vein was isolated and implanted into the carotid artery on the same side (J.Hum.Hypertens., 12 (suppl.1), S21(1999)). After implantation, the incision was sutured and the animal was raised as usual after coming out from the anesthetic.
(§2) 2 Groups each including 5 dogs, which had been subjected to the bypass grafting, were provided as the treatment group and the non-treatment group. In the treatment group, 2-(5-formylamino-6-oxo-2-phenyl-1,6-dihydropyrimidin-1-yl)-N-[2,3-dioxo-1-phenylmethyl-6-(2-pyridyloxy)]hexylacetamide (No. 10) was orally administered at a dose of 5 mg/kg once a day in capsules every day over a period of 33 days in total from 5 days before the bypass grafting through the day of the blood vessel sampling.
28 Days after the bypass grafting, 35 mg/kg of pentobarbital sodium was given intravenously to anesthetize. The implanted vein and the jugular vein on the other side were isolated, and each was cut at the center. […]
Based on the areas obtained in (D) described above and using the following equation, a vascular stenosis ratio of each individual animal was calculated. […]

Series [2] concerns balloon-injured right carotid artery. Nature of the series: Restenosis test in dog carotid artery balloon injury model. In kind it is in vivo, dog (beagle). Conditions: 28 days after balloon injury. The method, then:
21 Male adult beagles (9.4 to 11.4 kg) purchased from NIPPON NOSAN KOGYO were anesthetized with an intravenous administration of pentobarbital sodium at 30 mg/kg per animal. After immobilizing each animal in the spine position, the cervical part was incised and the right and left carotid arteries were exposed. After intravenous administration of 1000 U of heparin sodium, the right carotid artery branch was incised and the tip of a balloon catheter (Baxter 4 Fr, 40 cm) was inserted from the carotid artery to the aortic arch. With the balloon being inflated with application of pressure, the catheter was drawn out to injure the intima of the blood vessel. This procedure was repeated 5 times, and the balloon catheter was taken out, and the incision in the blood vessel was ligated. After suturing the skin incision, 1000 U of heparin sodium and 100 mg of ampicillin sodium were administered intramuscularly for the postoperative maintenance.
3 Groups each including 7 balloon-injured dogs were divided as the high dose treatment group, low dose treatment group and non-treatment group. 2-(5-Formylamino-6-oxo-2-phenyl-1,6-dihydropyrimidin-1-yl)-N-[2,3-dioxo-1-phenylmethyl-6-(2-pyridyloxy)]hexylacetamide (No. 10) was given at a dose of 1 mg/kg in the high dose treatment group and at 0.2 mg/kg in the low dose treatment group once a day in capsules every day over a period of 33 days in total from 5 days before the balloon injury through the day of the blood vessel sampling. In the non-treatment group, vacant capsules were given every day. In all groups, 50 ml or more of a tap water was given forcibly after administration.
Twenty eight (28) days after the balloon injury, 30 mg/kg of pentobarbital sodium was given intravenously to anesthetize. After exsanguination, the right carotid artery as an injured position was isolated, and cut into 3 pieces. About 5 mm was cut out of each of the sections which were distal, proximal and center with regard to the heart. The left carotid artery was also isolated as a non-injury position, from the center of which about 5 mm was cut off, and each was fixed in 10% formalin neutral buffer solution.
Each vascular tissue embedded in a paraffin was shaved into sections, and subjected to a Hematoxylin-Eoshin staining. The intraluminal area, the area inside the intima and the area inside the media were measured using Olympus Image Analyzer Model VM-30.
Based on the areas obtained in (D) described above and using the following equation, a vascular stenosis ratio and a vascular lumen ratio of each position were calculated, and the mean of the three positions was regarded as the value of each individual animal. In the equation, A is an area inside the intima, B is an intraluminal area and C is an area inside the media. […]

For series [3] the following is noted: rat, in vivo, po, 100 mg/kg. The text has this: A compound employed in the invention has a low toxicity, and any compound undergoes a characteristically low accumulation of the toxicity when given continuously. […] In addition, another characteristic advantage is the possibility of giving orally as a therapeutic or prophylactic agent for an angiostenosis.

The target in the next series is T1, chymase (Canis lupus familiaris, UniProt P21842).
T1 construct: An isolated blood vessel was combined with a 10-fold volume (w/v) of a 20 mM sodium phosphate buffer solution (pH7.4); from tissue; host or cells: implanted jugular vein graft of beagle dogs (homogenate, high-salt/detergent extract supernatant)
T1 sequence (P21842 22-249): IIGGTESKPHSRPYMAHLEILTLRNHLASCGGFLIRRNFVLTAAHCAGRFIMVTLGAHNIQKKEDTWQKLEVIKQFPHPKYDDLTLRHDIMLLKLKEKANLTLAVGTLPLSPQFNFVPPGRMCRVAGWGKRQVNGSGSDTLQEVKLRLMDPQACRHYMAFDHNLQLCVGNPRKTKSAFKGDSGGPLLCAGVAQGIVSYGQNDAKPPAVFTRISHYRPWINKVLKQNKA
The series is described as follows: Chymase activity measurement in implanted blood vessel, dog bypass graft model. In kind it is in vivo, dog (beagle). Conditions: implanted blood vessel 28 days after bypass grafting; 5 mg/kg orally once a day in capsules for 33 days; angiotensin I substrate. Here is the method: (A) Bypass Graft Model Preparation
as §1, §2
28 Days after the bypass grafting, 35 mg/kg of pentobarbital sodium was given intravenously to anesthetize. […]
The chymase activity was measured using angiotensin I as a substrate. […] Immediately after completion of the reaction, angiotensin II produced was quantified using a high performance liquid chromatography, and the chymase activity of the tissue was calculated.

For series [4] the following is noted: clinical tests in Japan (RINSHO IYAKU, 12(1), 65 (1996)); cited from earlier work.
[5] abbreviates: High dose 1 mg/kg once a day in capsules for 33 days, p<0.05 vs non-treatment.

With `O=CNc1cnc(-c2ccccc2)n(CC(=O)NC(Cc2ccccc2)C(=O)C(=O)CCCOc2ccccn2)c1=O` (stereo not drawn) [Compound No. 10, 2-(5-formylamino-6-oxo-2-phenyl-1,6-dihydropyrimidin-1-yl)-N-[2,3-dioxo-1-phenylmethyl-6-(2-pyridyloxy)]hexylacetamide], the intima area in series [1] worked out at 1.78 ± 0.12 mm2. Also, the Vascular stenosis ratio in series [1] ([(A-B)/(C-A)]x100) came out at 30.9 ± 8.8%; in series [2] (setting [5]), 10.5 ± 1.8 %; in series [2] (Low dose 0.2 mg/kg once a day in capsules for 33 days), 13.6 ± 2.0%. The Vascular lumen ratio is recorded as 41.6 ± 1.1 % in series [2] (setting [5]) and 38.4 ± 2.0% in series [2] (Low dose 0.2 mg/kg once a day in capsules for 33 days, B/Cx100). Further, the toxicological change entry in series [3] is on record as “no toxicological change”. For the same compound, the Chymase activity at chymase amounted to 4.88 ± 0.53 mU/mg protein.

For the compound `COc1ccc(/C=C/C(=O)Nc2ccccc2C(=O)O)cc1OC` [tranilast], in series [4], the “side effect in clinical tests” value is recorded as “hepatic dysfunction as a highly frequent side effect”.
